The text below walks through data of patent US7820623B2 (priority 2006, dated 2010).

Test [1] has as its system thapsigargin-induced IL-2 production in human whole blood.
Test [2] has as its system thapsigargin-induced IFN-g production in human whole blood. Type of test: cell-based.
The mark [3] stands for this setting: read-out: Analogue Activity (IC50) WB/IL-2.
Where [4] appears, read: read-out: Analogue Activity (IC50) WB/IFNg.

Like-named read-outs stand apart in the source and are kept apart here. Bridge positions count the residues as written; N and C are the ends. Square brackets hold non-standard residues; d marks the D form. Peptide text beside a SMILES is read from it. 1Nal = N[C@@H](Cc1cccc2ccccc12)C(=O)O

Turning to `CC[C@H](C)[C@@H]1NC(=O)[C@H](CCCCN)NC(=O)[C@@H](NC(=O)[C@H](CCCCN)NC(=O)[C@@H](NC(=O)[C@H](CC(N)=O)NC(=O)[C@@H](NC(=O)[C@@H](NC(=O)[C@@H](NC(=O)CN)C(C)C)[C@@H](C)CC)[C@@H](C)CC)C(C)C)CSSC[C@@H]2NC(=O)[C@H](CCCCN)NC(=O)CNC(=O)[C@H](Cc3ccccc3)NC(=O)[C@H](CCCNC(=N)N)NC(=O)[C@H](CCSC)NC(=O)CNC(=O)[C@H](C)NC(=O)[C@H](CCCCN)NC(=O)[C@H](CCCCN)NC(=O)[C@@H]3CSSC[C@@H](C(=O)N[C@H](C(=O)N4CCC[C@H]4C(=O)N[C@@H](CCCCN)C(=O)O)[C@@H](C)O)NC(=O)[C@H](Cc4c[nH]cn4)NC(=O)[C@H](CSSC[C@H](NC(=O)[C@H](CCC(N)=O)NC(=O)[C@H](CCCNC(=N)N)NC(=O)[C@H](CO)NC1=O)C(=O)N[C@@H](CC(C)C)C(=O)N[C@@H](CCC(=O)O)C(=O)N1CCC[C@H]1C(=O)N3)NC(=O)[C@H](CCCCN)NC(=O)CNC(=O)[C@H](CCCNC(=N)N)NC(=O)[C@H](CCSC)NC2=O` [N30R] (H-GVIINVKCKISRQCLEPCKKAGMRFGKCMRGKCHCTPK-OH; disulfide 8-28, 14-33, 18-35), the figures for the IC50 in test [1] (setting [3]) and in test [2] (setting [4]) were 0.405 nM and 0.445 nM, respectively.

As to `CC[C@H](C)[C@@H]1NC(=O)[C@H](CCCCN)NC(=O)[C@@H](NC(=O)[C@H](CCCCN)NC(=O)[C@@H](NC(=O)[C@H](C)NC(=O)[C@@H](NC(=O)[C@@H](NC(=O)[C@@H](NC(=O)CN)C(C)C)[C@@H](C)CC)[C@@H](C)CC)C(C)C)CSSC[C@@H]2NC(=O)[C@H](CCCCN)NC(=O)CNC(=O)[C@H](Cc3ccccc3)NC(=O)[C@H](CCCNC(=N)N)NC(=O)[C@H](CCSC)NC(=O)CNC(=O)[C@H](C)NC(=O)[C@H](CCCCN)NC(=O)[C@H](CCCCN)NC(=O)[C@@H]3CSSC[C@@H](C(=O)N[C@H](C(=O)N4CCC[C@H]4C(=O)N[C@@H](CCCCN)C(=O)O)[C@@H](C)O)NC(=O)[C@H](Cc4c[nH]cn4)NC(=O)[C@H](CSSC[C@H](NC(=O)[C@H](CCC(N)=O)NC(=O)[C@H](CCCNC(=N)N)NC(=O)[C@H](CO)NC1=O)C(=O)N[C@@H](CC(C)C)C(=O)N[C@@H](CCC(=O)O)C(=O)N1CCC[C@H]1C(=O)N3)NC(=O)[C@H](CCCCN)NC(=O)CNC(=O)[C@H](CC(N)=O)NC(=O)[C@H](CCSC)NC2=O` [N5A] (H-GVIIAVKCKISRQCLEPCKKAGMRFGKCMNGKCHCTPK-OH; disulfide 8-28, 14-33, 18-35), the IC50 in test [1] (setting [3]) is 0.0679 nM; in test [2] (setting [4]), 0.067 nM.

Turning to `CC[C@H](C)[C@@H]1NC(=O)[C@H](CCCCN)NC(=O)[C@@H](NC(=O)[C@H](CCCCN)NC(=O)[C@@H](NC(=O)[C@H](CC(N)=O)NC(=O)[C@@H](NC(=O)[C@@H](NC(=O)[C@@H](NC(=O)CN)C(C)C)[C@@H](C)CC)[C@@H](C)CC)C(C)C)CSSC[C@@H]2NC(=O)[C@H](CCCCN)NC(=O)CNC(=O)[C@H](Cc3ccccc3)NC(=O)[C@H](CCCNC(=N)N)NC(=O)[C@H](CCSC)NC(=O)CNC(=O)[C@H](C)NC(=O)[C@H](CCCCN)NC(=O)[C@H](CCCCN)NC(=O)[C@@H]3CSSC[C@@H](C(=O)N[C@H](C(=O)N4CCC[C@H]4C(=O)N[C@@H](CCCCN)C(=O)O)[C@@H](C)O)NC(=O)[C@H](Cc4c[nH]cn4)NC(=O)[C@H](CSSC[C@H](NC(=O)[C@H](CCC(N)=O)NC(=O)[C@H](CCCNC(=N)N)NC(=O)[C@H](C)NC1=O)C(=O)N[C@@H](CC(C)C)C(=O)N[C@@H](CCC(=O)O)C(=O)N1CCC[C@H]1C(=O)N3)NC(=O)[C@H](CCCCN)NC(=O)CNC(=O)[C@H](CC(N)=O)NC(=O)[C@H](CCSC)NC2=O` [S11A] (H-GVIINVKCKIARQCLEPCKKAGMRFGKCMNGKCHCTPK-OH; disulfide 8-28, 14-33, 18-35), the IC50 amounted to 0.09 nM in test [1] (setting [3]) and 0.11 nM in test [2] (setting [4]).

As to `CC[C@H](C)[C@@H]1NC(=O)[C@H](CCCNC(=N)N)NC(=O)[C@@H](NC(=O)[C@H](CCCCN)NC(=O)[C@@H](NC(=O)[C@H](CC(N)=O)NC(=O)[C@@H](NC(=O)[C@@H](NC(=O)[C@@H](NC(=O)CN)C(C)C)[C@@H](C)CC)[C@@H](C)CC)C(C)C)CSSC[C@@H]2NC(=O)[C@H](CCCCN)NC(=O)CNC(=O)[C@H](Cc3ccccc3)NC(=O)[C@H](CCCNC(=N)N)NC(=O)[C@H](CCSC)NC(=O)CNC(=O)[C@H](C)NC(=O)[C@H](CCCCN)NC(=O)[C@H](CCCCN)NC(=O)[C@@H]3CSSC[C@@H](C(=O)N[C@H](C(=O)N4CCC[C@H]4C(=O)N[C@@H](CCCCN)C(=O)O)[C@@H](C)O)NC(=O)[C@H](Cc4c[nH]cn4)NC(=O)[C@H](CSSC[C@H](NC(=O)[C@H](CCC(N)=O)NC(=O)[C@H](CCCNC(=N)N)NC(=O)[C@H](CO)NC1=O)C(=O)N[C@@H](CC(C)C)C(=O)N[C@@H](CCC(=O)O)C(=O)N1CCC[C@H]1C(=O)N3)NC(=O)[C@H](CCCCN)NC(=O)CNC(=O)[C@H](CC(N)=O)NC(=O)[C@H](CCSC)NC2=O` [K9R] (H-GVIINVKCRISRQCLEPCKKAGMRFGKCMNGKCHCTPK-OH; disulfide 8-28, 14-33, 18-35), the IC50 in test [1] (setting [3]) stood at 0.107 nM; in test [2] (setting [4]) it was 0.077 nM.

Take `CC[C@H](C)[C@@H]1NC(=O)[C@H](CCCCN)NC(=O)[C@@H](NC(=O)[C@H](CCCCN)NC(=O)[C@@H](NC(=O)[C@H](CC(N)=O)NC(=O)[C@@H](NC(=O)[C@@H](NC(=O)[C@@H](NC(=O)CN)C(C)C)[C@@H](C)CC)[C@@H](C)CC)C(C)C)CSSC[C@@H]2NC(=O)[C@H](CCCCN)NC(=O)CNC(=O)[C@H](Cc3ccccc3)NC(=O)[C@H](CCCNC(=N)N)NC(=O)[C@H](CCSC)NC(=O)CNC(=O)[C@H](C)NC(=O)[C@H](CCCCN)NC(=O)[C@H](CCCCN)NC(=O)[C@@H]3CSSC[C@@H](C(=O)N[C@H](C(=O)N4CCC[C@H]4C(=O)N[C@@H](CCCCN)C(=O)O)[C@@H](C)O)NC(=O)[C@H](Cc4c[nH]cn4)NC(=O)[C@H](CSSC[C@H](NC(=O)[C@H](CCC(=O)O)NC(=O)[C@H](CCCNC(=N)N)NC(=O)[C@H](CO)NC1=O)C(=O)N[C@@H](CC(C)C)C(=O)N[C@@H](CCC(=O)O)C(=O)N1CCC[C@H]1C(=O)N3)NC(=O)[C@H](CCCCN)NC(=O)CNC(=O)[C@H](CC(N)=O)NC(=O)[C@H](CCSC)NC2=O` [Q13E] (H-GVIINVKCKISRECLEPCKKAGMRFGKCMNGKCHCTPK-OH; disulfide 8-28, 14-33, 18-35): the figures for the IC50 in test [1] (setting [3]) and in test [2] (setting [4]) were 1.06 nM and 0.799 nM, respectively.

With `CC[C@H](C)[C@@H]1NC(=O)[C@H](CCCCN)NC(=O)[C@@H](NC(=O)[C@H](CCCCN)NC(=O)[C@@H](NC(=O)[C@H](CC(N)=O)NC(=O)[C@@H](NC(=O)[C@@H](NC(=O)[C@@H](NC(=O)CN)C(C)C)[C@@H](C)CC)[C@@H](C)CC)C(C)C)CSSC[C@@H]2NC(=O)[C@H](CCCCN)NC(=O)CNC(=O)[C@H](Cc3ccccc3)NC(=O)[C@H](CCCNC(=N)N)NC(=O)[C@H](CCC(=O)O)NC(=O)CNC(=O)[C@H](C)NC(=O)[C@H](CCCCN)NC(=O)[C@H](CCCCN)NC(=O)[C@@H]3CSSC[C@@H](C(=O)N[C@H](C(=O)N4CCC[C@H]4C(=O)N[C@@H](CCCCN)C(=O)O)[C@@H](C)O)NC(=O)[C@H](Cc4c[nH]cn4)NC(=O)[C@H](CSSC[C@H](NC(=O)[C@H](CCC(N)=O)NC(=O)[C@H](CCCNC(=N)N)NC(=O)[C@H](CO)NC1=O)C(=O)N[C@@H](CC(C)C)C(=O)N[C@@H](CCC(=O)O)C(=O)N1CCC[C@H]1C(=O)N3)NC(=O)[C@H](CCCCN)NC(=O)CNC(=O)[C@H](CC(N)=O)NC(=O)[C@H](CCSC)NC2=O` [M23E] (H-GVIINVKCKISRQCLEPCKKAGERFGKCMNGKCHCTPK-OH; disulfide 8-28, 14-33, 18-35), the IC50 was found to be 0.606 nM in test [1] (setting [3]) and 0.666 nM in test [2] (setting [4]).

For `CC[C@H](C)[C@@H]1NC(=O)[C@H](CCCCN)NC(=O)[C@@H](NC(=O)[C@H](CCCCN)NC(=O)[C@@H](NC(=O)[C@H](CCCNC(=N)N)NC(=O)[C@@H](NC(=O)[C@@H](NC(=O)[C@@H](NC(=O)CN)C(C)C)[C@@H](C)CC)[C@@H](C)CC)C(C)C)CSSC[C@@H]2NC(=O)[C@H](CCCCN)NC(=O)CNC(=O)[C@H](Cc3ccccc3)NC(=O)[C@H](CCCNC(=N)N)NC(=O)[C@H](CCSC)NC(=O)CNC(=O)[C@H](C)NC(=O)[C@H](CCCCN)NC(=O)[C@H](CCCCN)NC(=O)[C@@H]3CSSC[C@@H](C(=O)N[C@H](C(=O)N4CCC[C@H]4C(=O)N[C@@H](CCCCN)C(=O)O)[C@@H](C)O)NC(=O)[C@H](Cc4c[nH]cn4)NC(=O)[C@H](CSSC[C@H](NC(=O)[C@H](CCC(N)=O)NC(=O)[C@H](CCCNC(=N)N)NC(=O)[C@H](CO)NC1=O)C(=O)N[C@@H](CC(C)C)C(=O)N[C@@H](CCC(=O)O)C(=O)N1CCC[C@H]1C(=O)N3)NC(=O)[C@H](CCCCN)NC(=O)CNC(=O)[C@H](CC(N)=O)NC(=O)[C@H](CCSC)NC2=O` [N5R] (H-GVIIRVKCKISRQCLEPCKKAGMRFGKCMNGKCHCTPK-OH; disulfide 8-28, 14-33, 18-35), the values for the IC50 in test [1] (setting [3]) and in test [2] (setting [4]) were 0.095 nM and 0.12 nM, respectively.

With `CC[C@H](C)[C@@H]1NC(=O)[C@H](CCCCN)NC(=O)[C@@H](NC(=O)[C@H](CCCCN)NC(=O)[C@@H](NC(=O)[C@H](CC(N)=O)NC(=O)[C@@H](NC(=O)[C@@H](NC(=O)[C@@H](NC(=O)CN)C(C)C)[C@@H](C)CC)[C@@H](C)CC)C(C)C)CSSC[C@@H]2NC(=O)[C@H](CCCCN)NC(=O)CNC(=O)[C@H](Cc3ccccc3)NC(=O)[C@H](CCCNC(=N)N)NC(=O)[C@H](CCSC)NC(=O)CNC(=O)[C@H](C)NC(=O)[C@H](CCCCN)NC(=O)[C@H](CCCCN)NC(=O)[C@@H]3CSSC[C@@H](C(=O)N[C@H](C(=O)N4CCC[C@H]4C(=O)N[C@@H](CCCCN)C(=O)O)[C@@H](C)O)NC(=O)[C@H](Cc4c[nH]cn4)NC(=O)[C@H](CSSC[C@H](NC(=O)[C@H](CCC(N)=O)NC(=O)[C@H](CCCNC(=N)N)NC(=O)[C@H](CO)NC1=O)C(=O)N[C@@H](Cc1cccc4ccccc14)C(=O)N[C@@H](CCC(=O)O)C(=O)N1CCC[C@H]1C(=O)N3)NC(=O)[C@H](CCCCN)NC(=O)CNC(=O)[C@H](CC(N)=O)NC(=O)[C@H](CCSC)NC2=O` [L15Nal] (H-GVIINVKCKISRQC[1Nal]EPCKKAGMRFGKCMNGKCHCTPK-OH; disulfide 8-28, 14-33, 18-35), the IC50 in test [1] (setting [3]) came to 0.358 nM; in test [2] (setting [4]), 0.37 nM.

Turning to “GVIINVKCKASRQCLEPCKKAGMRFGKCMNGKCHCTPK [Ala-10 (SEQ ID No: 1408)]”, the IC50 was found to be 0.05 nM in test [1] (read-out: Average IC50 IL-2) and 0.0296 nM in test [2] (read-out: Average IC50 IFNg).

As to “GVIINVKCKISRQCLEPCKKAGMRFGKCANGKCHCTPK [Ala-29 (SEQ ID No: 1424)]”, the IC50 in test [1] (read-out: Average IC50 IL-2) amounted to 0.447 nM; in test [2] (read-out: Average IC50 IFNg) it was 0.292 nM.
